Assay results published in publication PMC12735945, “Synthetic Linear Lipopeptides and Lipopeptoids Induce Apoptosis and Oxidative Stress: In Vitro Cytotoxicity and SAR Evaluation Against Cancer Cell Lines” (Pharmaceuticals, 2025).
Where two headings read alike, the source gives them in different places. Starred links: 1 amine or outer side, 2 acyl side, 3 side chain; linkers in the order of their positions; H or OH if unused. Positions of bridges follow the written chain, without caps; N, C: chain ends. Non-standard residues stand in square brackets, D forms with d. Residues, ends and D or L forms follow the SMILES beside them. *: point of attachment. X1 = CC(C)CCCCCCCCC[C@H](CC(=O)[*:1])O[*:2]; Heptadecanoyl = CCCCCCCCCCCCCCCCC(=O)*; Stearoyl = CCCCCCCCCCCCCCCCCC(=O)*; Myristoyl = CCCCCCCCCCCCCC(=O)*; Boc = CC(C)(C)OC(=O)*; Nlys = NCCCCNCC(=O)O

Assays:
[1] = tested on: HeLa (human cervical adenocarcinoma) cells; format: cell-based; conditions: 72 h
Protocol: (§1) The MTT and CV assays were employed for initial cytotoxicity screening and determination of half-maximal inhibitory concentrations (IC50), as described previously. Cells were seeded in 96-well plates and incubated for 24 h prior to treatment. B16F10, HT-29, HeLa, and NIH3T3 cells were seeded at a density of 2000 cells per well, while PC3 cells were seeded at 6000 cells per well due to their slower proliferation rate. For fast screening, cancer cells were treated with two concentrations of each LLP (0.1 µM and 10 µM) for 72 h in triplicate, with four replicates in each experiment. […] Digitonin was used as a positive control in all assays. Following treatment, absorbance was measured using a microplate reader (SpectraMax, Molecular Devices, San Jose, CA, USA) at 540 nm, with a reference wavelength of 670 nm. Cell viability was calculated as a percentage of untreated control wells.

[2] = tested on: HT-29 (human colon adenocarcinoma) cells; format: cell-based; conditions: 72 h
Protocol: as §1

[3] = tested on: PC3 (human prostate cancer) cells; format: cell-based; conditions: 72 h
Protocol: as §1

[4] = tested on: B16F10 (mouse skin melanoma) cells; format: cell-based; conditions: 72 h
Protocol: as §1

[5] = tested on: HT-29 (human colon adenocarcinoma) cells; format: cell-based; conditions: 72 h; remark: listed apart in the source
Protocol: as §1

[6] = tested on: HeLa (human cervical adenocarcinoma) cells; format: cell-based; conditions: 72 h; remark: listed apart in the source
Protocol: as §1

[7] = tested on: PC3 (human prostate cancer) cells; format: cell-based; conditions: 72 h; remark: listed apart in the source
Protocol: as §1

[8] = tested on: B16F10 (mouse skin melanoma) cells; format: cell-based; conditions: 72 h; remark: listed apart in the source
Protocol: as §1

B16F10 cells [9] = assay: Cell cycle analysis (DAPI staining, flow cytometry); format: cell-based, mouse; conditions: 72 h
Protocol: B16F10 cells were seeded overnight in 6-well plates at a density of 1 × 10^5 cells per well and treated for 72 h with selected active LLPs either at the IC50 or 2 × IC50 concentration. Following treatment, both floating and adherent cells were collected, washed with PBS, and fixed in 70% ethanol at 4 °C overnight. Fixed cells were stained with DAPI staining solution (1 µg/mL) for 30 min at 37 °C in the dark, followed by PBS washing to remove excess dye. Flow cytometric analysis was performed using a FACSAria III instrument (BD Biosciences, Eysins, Switzerland). Histograms of cell counts versus fluorescence intensity were generated and cell cycle distribution was determined based on mean fluorescence intensity values.

B16F10 cells [10] = assay: Apoptosis by Annexin V-FITC/PI staining; format: cell-based, mouse; conditions: B16F10, IC50 concentration, 72 h
Protocol: B16F10 melanoma cells were seeded in 6-well plates at a density of 1 × 10^5 cells/well and incubated overnight to allow for cell adherence. […] Following treatment, both floating and adherent cells were harvested and washed with PBS. The cells were then resuspended in 100 μL of Annexin V binding buffer containing 5 μL of Annexin V-FITC and 2 μL of PI per sample. Staining was performed for 15 min at 37 °C in the dark. After staining, cells were washed with PBS and analyzed using a BD FACSAria III flow cytometer (BD Biosciences) to quantify the percentages of apoptotic cells.

caspases in B16F10 cells = assay: ApoStat caspase detection assay; format: cell-based, mouse; conditions: B16F10, IC50 concentration, 72 h
Protocol: B16F10 cells were seeded in 6-well plates at a density of 1 × 10^5 cells per well and treated for 72 h with IC50 concentrations of selected active LLPs. Post-treatment, cells were harvested and washed with PBS. Cells were then stained with 100 μL of working ApoStat solution, prepared by diluting ApoStat reagent (FITC-VAD-FMK) in PBS containing 5% FCS (99 μL of PBS 5% FCS + 1 μL ApoStat per sample). The staining was performed for 30 min at 37 °C in the dark. Following incubation, cells were washed to remove unbound reagents and analyzed by flow cytometry using a FACSAria III system (BD Biosciences). The fluorescence intensity of FITC was measured to assess caspase production, with increased fluorescence indicating elevated caspase activity.

B16F10 cells [11] = assay: CFSE-based cell proliferation assay; design: species or system mouse; conditions: B16F10, IC50 concentration, 72 h
Protocol: B16F10 cells were stained with 1 µM carboxyfluorescein succinimidyl ester (CFSE) for 10 min at 37 °C, followed by treatment with compounds 17, 53, or 57 at IC50 concentrations for 72 h. After incubation, cells were washed, trypsinized, and analyzed by flow cytometry to assess cell division based on CFSE fluorescence intensity.

B16F10 cells [12] = assay: ROS/RNS production (DHR staining, flow cytometry); format: cell-based, mouse; conditions: B16F10, IC50 concentration, 72 h, versus untreated control
Protocol: (§2) To assess intracellular ROS/RNS levels, B16F10 cells were first stained with 1 µM DHR for 10 min at 37 °C. Following staining, cells were treated with LLPs 17, 53 or 58 at their IC50 concentrations for 72 h. After treatment, cells were trypsinized, washed with PBS, and analyzed by flow cytometry to quantify DHR fluorescence, indicative of ROS/RNS production. For NO detection, B16F10 cells were treated under identical conditions using the same LLP concentrations. After 72 h, cells were incubated with 5 µM DAF-FM diacetate in RPMI 1640 supplemented with 10% FCS for 1 h at 37 °C. The stain was then deactivated by incubation for 15 min with a serum-free medium. Finally, cells were detached, washed with PBS, and subjected to flow cytometric analysis to assess intracellular NO levels.

B16F10 cells [13] = assay: NO production (DAF-FM staining, flow cytometry); format: cell-based, mouse; conditions: B16F10, IC50 concentration, 72 h
Protocol: as §2

[14] = tested on: NIH3T3 mouse embryonic fibroblasts; format: cell-based; conditions: 72 h
Protocol: as §1

[15] = tested on: B16F10 (mouse skin melanoma) cells; conditions: CV assay, 72 h; mean ± SD; cited from earlier work
Protocol: Table 1 IC50 value (µM) for cytotoxic LLPs (72 h, CV assay). Data represent mean ± SD from three independent biological experiments, each performed with eight technical replicates per concentration. | column: B16F10

[16] = tested on: HeLa (human cervical adenocarcinoma) cells; conditions: CV assay, 72 h; mean ± SD; cited from earlier work
Protocol: Table 1 IC50 value (µM) for cytotoxic LLPs (72 h, CV assay). Data represent mean ± SD from three independent biological experiments, each performed with eight technical replicates per concentration. | column: HeLa

[17] = MTT assay, mean ± SD of three independent biological experiments, read-out: IC50 B16F10
[18] = MTT assay, mean ± SD of three independent biological experiments, read-out: IC50 HeLa
[19] = B16F10, double IC50 concentration

IC50 [1] | IC50 [2] | IC50 [5] | IC50 [6] | IC50 [8] | IC50 [4] | IC50 [6, 18] | SMILES | cells in the sub-G1 phase (B16F10 cells [9]; B16F10, IC50 concentration) | cells in the sub-G1 phase (B16F10 cells [9]; [19]) | proportion of apoptotic cells (B16F10 cells [10]) | caspase activation (ApoStat fluorescence) (caspases in B16F10 cells) | cell division profile (CFSE) (B16F10 cells [11]) | ROS/RNS production (B16F10 cells [12]) | NO production (B16F10 cells [13]) | also measured
6.6 ± 0.3 µM | 6.2 ± 0.2 µM | 6.5 ± 0.6 µM | 6.4 ± 0.9 µM |  |  |  | CCCCCCCCCCCCCCCC(=O)N(CCCCCCNC(=O)OC(C)(C)C)CC(=O)NCC(=O)N(CCCCCCNC(=O)OC(C)(C)C)CC(=O)NCC(=O)OC [Compound 3] |  |  |  |  |  |  |  | IC50 [3]: 6.1 ± 0.2 µM; IC50 [4, 17]: 6.1 ± 0.1 µM; IC50 [7]: 5.9 ± 0.1 µM
 | 4.1 ± 0.8 µM | 4 ± 0.6 µM |  | 5.6 ± 0.4 µM | 5.7 ± 0.3 µM | 5.6 ± 0.3 µM | CCCCCCCCCCCCCC(=O)N(CCNC(=O)OC(C)(C)C)CC(=O)NCC(=O)N(CCNC(=O)OC(C)(C)C)CC(=O)NCC(=O)OC [Compound 17] | approximately 20% | 50–60% | approximately 15% | gradual enhancement in the fluorescence signal | notably reduced the proportion of cells undergoing successive divisions | moderate ROS/RNS generation | increased NO production | IC50 [3]: 4.1 ± 0.6 µM; IC50 [7]: 4 ± 0.3 µM
7.9 ± 0.6 µM | 7.8 ± 0.9 µM | 7.5 ± 0.1 µM | 8 ± 0.5 µM |  |  |  | CCCCCCCCCCCCCCCCC(=O)N(CCCCNC(=O)OC(C)(C)C)CC(=O)NCC(=O)N(CCCCNC(=O)OC(C)(C)C)CC(=O)NCC(=O)OC [Compound 45] (Heptadecanoyl-[Nlys](Boc)G[Nlys](Boc)G-OMe) |  |  |  |  |  |  |  | IC50 [4, 17]: 8 ± 0.2 µM
8 ± 0.4 µM |  |  | 8.2 ± 0.3 µM | 8 ± 0.9 µM | 8.1 ± 0.1 µM |  | CCCCCCCCCCCCCCCCCC(=O)N(CCCCNC(=O)OC(C)(C)C)CC(=O)NCC(=O)N(CCCCNC(=O)OC(C)(C)C)CC(=O)NCC(=O)OC [Compound 46] (Stearoyl-[Nlys](Boc)G[Nlys](Boc)G-OMe) |  |  |  |  |  |  |  | 
 |  |  |  |  |  | 12.3 ± 0.8 µM | CCCCCCCCCCCCCC(=O)N(CCCCNC(=O)OC(C)(C)C)CC(=O)NCC(=O)N(CCCCNC(=O)OC(C)(C)C)CC(=O)NCC(=O)OC [Compound 47] (Myristoyl-[Nlys](Boc)G[Nlys](Boc)G-OMe) |  |  |  |  |  |  |  | 
 |  |  |  | 7.7 ± 0.3 µM | 8 ± 0.2 µM |  | CCCCCCCCCCCCCCCC(=O)N(CCc1ccc(O)cc1)CC(=O)NCC(=O)OC [Compound 53] | approximately 20% | 50–60% | approximately 15% | gradual enhancement in the fluorescence signal | notably reduced the proportion of cells undergoing successive divisions | only slightly enhanced | only a slight increase | 
 |  |  |  |  |  | 15.4 ± 0.4 µM | CCCCCCCCCCCCCCCC(=O)N(CCCCN=[N+]=[N-])CC(=O)NCC(=O)N(CCCCN=[N+]=[N-])CC(=O)NCC(=O)OC [Compound 55] |  |  |  |  |  |  |  | 
7.7 ± 0.2 µM | 9.1 ± 0.2 µM | 8.7 ± 0.3 µM | 7.8 ± 0.3 µM | 7.4 ± 0.1 µM | 7.5 ± 0.2 µM |  | CCCCCCCCCCCCCCCCCCC(=O)N(CCCCN=[N+]=[N-])CC(=O)NCC(=O)N(CCCCN=[N+]=[N-])CC(=O)NCC(=O)OC [Compound 58] | approximately 20% | 50–60% | approximately 15% | clearer caspase activation was detected | notably reduced the proportion of cells undergoing successive divisions | marked increase | increased NO production | 
 |  |  |  | 11.1 ± 1.2 µM | 11.5 ± 1.3 µM |  | CCCCCCCCCCCCCCCCCCCC(=O)N(CCCCN=[N+]=[N-])CC(=O)NCC(=O)N(CCCCN=[N+]=[N-])CC(=O)NCC(=O)OC [Compound 59] |  |  |  |  |  |  |  | 
 |  |  | 64.9 ± 0.8 µM |  | 50.3 ± 0.6 µM |  | CC(C)CCCCCCCCC[C@@H]1CC(=O)N[C@@H](CCC(=O)O)C(=O)N[C@@H](CC(C)C)C(=O)N[C@H](CC(C)C)C(=O)N[C@@H](C(C)C)C(=O)N[C@@H](CC(=O)O)C(=O)N[C@H](CC(C)C)C(=O)N[C@@H](CC(C)C)C(=O)O1 [Surfactin, surfactin, reference compound] (EL[dL]VD[dL]L; linker N-C via X1 (inferred)) |  |  |  |  |  |  |  | NIH3T3 cell viability [14]: approximately 25%; IC50 [15]: 40.4 ± 0.3 µM; IC50 [16]: 76.2 ± 1.6 µM
